Tests used:
Assay in all cases: relative viability (nuclei count vs DMSO), 5 days (fraction); higher = more cells survive
NCI-H358 = system: NCI-H358
Method in brief: (§1)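 For relative viability, nuclei counts in treated wells were divided by those in vehicle wells. Lung cancer cell lines had been pin-tool dosed in 1536-well plates the day after seeding and cultured for 5 days, then fixed and stained in one step (final 0.05% Triton X-100, 1% formaldehyde, 1 ug/ml Hoechst) and imaged at 4×. Doses were one drug alone or a fixed anchor-drug dose plus five library-drug doses (not always all listed) in √10 steps, and values are duplicate-plate medians.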

NCI-H2228 = system: NCI-H2228
Method in brief: as §1

NCI-H1915 = system: NCI-H1915
Method in brief: as §1

LC-2-ad = system: LC-2-ad
Method in brief: as §1

SW 1573 = system: SW 1573
Method in brief: as §1

PC-3 [JPC-3] = system: PC-3 [JPC-3]
Method in brief: as §1

RERF-LC-KJ = system: RERF-LC-KJ
Method in brief: as §1

HOP-62 = system: HOP-62
Method in brief: as §1

NCI-H1792 = system: NCI-H1792
Method in brief: as §1

LXF-289 = system: LXF-289
Method in brief: as §1

SK-LU-1 = system: SK-LU-1
Method in brief: as §1

HCC-15 = system: HCC-15
Method in brief: as §1

NCI-H2347 = system: NCI-H2347
Method in brief: as §1

NCI-H2126 = system: NCI-H2126
Method in brief: as §1

NCI-H1755 = system: NCI-H1755
Method in brief: as §1

NCI-H647 = system: NCI-H647
Method in brief: as §1

A-427 = system: A-427
Method in brief: as §1

NCI-H1734 = system: NCI-H1734
Method in brief: as §1

NCI-H522 = system: NCI-H522
Method in brief: as §1

NCI-H1975 = system: NCI-H1975
Method in brief: as §1

NCI-H2342 = system: NCI-H2342
Method in brief: as §1

Compound `CCN(CC)CCCCNc1ncc2cc(-c3cc(OC)cc(OC)c3)c(NC(=O)NC(C)(C)C)nc2n1` + CCNC(=O)c1noc(-c2cc(C(C)C)c(O)cc2O)c1-c1ccc(CN2CCOCC2)cc1 [Luminespib] (partner 0.01 µM) has a relative viability (NCI-H358; first compound 0.01 µM) of 0.429, a relative viability (NCI-H358; first compound 0.03162 µM) of 0.193 and a relative viability (NCI-H358; first compound 0.1 µM) of 0.348. For the same compound, the relative viability (NCI-H358; first compound 0.3162 µM) was 0.503, the relative viability (NCI-H358; first compound 1 µM) was 0.347 and the relative viability (NCI-H2228; first compound 0.01 µM) was 0.131. It also gave a relative viability (NCI-H2228; first compound 0.03162 µM) of 0.109, a relative viability (NCI-H2228; first compound 0.1 µM) of 0.173 and a relative viability (NCI-H2228; first compound 0.3162 µM) of 0.247. For the same compound, the relative viability (NCI-H2228; first compound 1 µM) was 0.142, the relative viability (NCI-H1915; first compound 0.01 µM) was 0.885 and the relative viability (NCI-H1915; first compound 0.03162 µM) was 0.863. The relative viability (NCI-H1915; first compound 0.1 µM) was 1.02, the relative viability (NCI-H1915; first compound 0.3162 µM) was 0.932 and the relative viability (NCI-H1915; first compound 1 µM) was 0.711. It also gave a relative viability (LC-2-ad; first compound 0.01 µM) of 0.971, a relative viability (LC-2-ad; first compound 0.03162 µM) of 1.12 and a relative viability (LC-2-ad; first compound 0.1 µM) of 1.21. It also gave a relative viability (LC-2-ad; first compound 0.3162 µM) of 1.04, a relative viability (LC-2-ad; first compound 1 µM) of 1.11 and a relative viability (SW 1573; first compound 0.01 µM) of 0.238. For the same compound, the relative viability (SW 1573; first compound 0.03162 µM) was 0.297, the relative viability (SW 1573; first compound 0.1 µM) was 0.239 and the relative viability (SW 1573; first compound 0.3162 µM) was 0.177. The relative viability (SW 1573; first compound 1 µM) was 0.172, the relative viability (PC-3 [JPC-3]; first compound 0.01 µM) was 0.814 and the relative viability (PC-3 [JPC-3]; first compound 0.03162 µM) was 0.738. For the same compound, the relative viability (PC-3 [JPC-3]; first compound 0.1 µM) was 0.725, the relative viability (PC-3 [JPC-3]; first compound 0.3162 µM) was 0.746 and the relative viability (PC-3 [JPC-3]; first compound 1 µM) was 0.662. For the same compound, the relative viability (RERF-LC-KJ; first compound 0.01 µM) was 1.24, the relative viability (RERF-LC-KJ; first compound 0.03162 µM) was 1.21 and the relative viability (RERF-LC-KJ; first compound 0.1 µM) was 1.84. The relative viability (RERF-LC-KJ; first compound 0.3162 µM) was 1.35, the relative viability (RERF-LC-KJ; first compound 1 µM) was 1.27 and the relative viability (HOP-62; first compound 0.01 µM) was 1.12. It also gave a relative viability (HOP-62; first compound 0.03162 µM) of 0.986, a relative viability (HOP-62; first compound 0.1 µM) of 1.02 and a relative viability (HOP-62; first compound 0.3162 µM) of 0.961. The relative viability (HOP-62; first compound 1 µM) was 0.888, the relative viability (NCI-H1792; first compound 0.01 µM) was 0.38 and the relative viability (NCI-H1792; first compound 0.03162 µM) was 0.388. The relative viability (NCI-H1792; first compound 0.1 µM) was 0.536, the relative viability (NCI-H1792; first compound 0.3162 µM) was 0.37 and the relative viability (NCI-H1792; first compound 1 µM) was 0.282. It also gave a relative viability (LXF-289; first compound 0.01 µM) of 0.727, a relative viability (LXF-289; first compound 0.03162 µM) of 0.668 and a relative viability (LXF-289; first compound 0.1 µM) of 0.699. It also gave a relative viability (LXF-289; first compound 0.3162 µM) of 0.801, a relative viability (LXF-289; first compound 1 µM) of 0.577 and a relative viability (SK-LU-1; first compound 0.01 µM) of 0.199. For the same compound, the relative viability (SK-LU-1; first compound 0.03162 µM) was 0.197, the relative viability (SK-LU-1; first compound 0.1 µM) was 0.197 and the relative viability (SK-LU-1; first compound 0.3162 µM) was 0.236. It also gave a relative viability (SK-LU-1; first compound 1 µM) of 0.168, a relative viability (HCC-15; first compound 0.01 µM) of 0.251 and a relative viability (HCC-15; first compound 0.03162 µM) of 0.257. For the same compound, the relative viability (HCC-15; first compound 0.1 µM) was 0.348, the relative viability (HCC-15; first compound 0.3162 µM) was 0.422 and the relative viability (HCC-15; first compound 1 µM) was 0.266. For the same compound, the relative viability (NCI-H2347; first compound 0.01 µM) was 0.675, the relative viability (NCI-H2347; first compound 0.03162 µM) was 0.341 and the relative viability (NCI-H2347; first compound 0.1 µM) was 0.447. It also gave a relative viability (NCI-H2347; first compound 0.3162 µM) of 0.372, a relative viability (NCI-H2347; first compound 1 µM) of 0.526 and a relative viability (NCI-H2126; first compound 0.01 µM) of 0.985. The relative viability (NCI-H2126; first compound 0.03162 µM) was 0.876, the relative viability (NCI-H2126; first compound 0.1 µM) was 0.953 and the relative viability (NCI-H2126; first compound 0.3162 µM) was 0.92. The relative viability (NCI-H2126; first compound 1 µM) was 0.898, the relative viability (NCI-H1755; first compound 0.01 µM) was 0.455 and the relative viability (NCI-H1755; first compound 0.03162 µM) was 0.694. The relative viability (NCI-H1755; first compound 0.1 µM) was 0.458, the relative viability (NCI-H1755; first compound 0.3162 µM) was 0.606 and the relative viability (NCI-H1755; first compound 1 µM) was 0.44. For the same compound, the relative viability (NCI-H647; first compound 0.01 µM) was 0.163, the relative viability (NCI-H647; first compound 0.03162 µM) was 0.205 and the relative viability (NCI-H647; first compound 0.1 µM) was 0.222. The relative viability (NCI-H647; first compound 0.3162 µM) was 0.205, the relative viability (NCI-H647; first compound 1 µM) was 0.148 and the relative viability (A-427; first compound 0.01 µM) was 1.01. For the same compound, the relative viability (A-427; first compound 0.03162 µM) was 1.01, the relative viability (A-427; first compound 0.1 µM) was 1.09 and the relative viability (A-427; first compound 0.3162 µM) was 1.03. For the same compound, the relative viability (A-427; first compound 1 µM) was 0.872, the relative viability (NCI-H1734; first compound 0.01 µM) was 0.0982 and the relative viability (NCI-H1734; first compound 0.03162 µM) was 0.189. The relative viability (NCI-H1734; first compound 0.1 µM) was 0.19, the relative viability (NCI-H1734; first compound 0.3162 µM) was 0.197 and the relative viability (NCI-H1734; first compound 1 µM) was 0.178. It also gave a relative viability (NCI-H522; first compound 0.01 µM) of 1.14, a relative viability (NCI-H522; first compound 0.03162 µM) of 1.08 and a relative viability (NCI-H522; first compound 0.1 µM) of 1.15. It also gave a relative viability (NCI-H522; first compound 0.3162 µM) of 1.13, a relative viability (NCI-H522; first compound 1 µM) of 1.11 and a relative viability (NCI-H1975; first compound 0.01 µM) of 0.161. It also gave a relative viability (NCI-H1975; first compound 0.03162 µM) of 0.148, a relative viability (NCI-H1975; first compound 0.1 µM) of 0.201 and a relative viability (NCI-H1975; first compound 0.3162 µM) of 0.366. The relative viability (NCI-H1975; first compound 1 µM) was 0.199, the relative viability (NCI-H2342; first compound 0.01 µM) was 0.775 and the relative viability (NCI-H2342; first compound 0.03162 µM) was 0.833. The relative viability (NCI-H2342; first compound 0.1 µM) was 0.768, the relative viability (NCI-H2342; first compound 0.3162 µM) was 0.633 and the relative viability (NCI-H2342; first compound 1 µM) was 0.811.
